Patent US20080045514A1 (Cytovia, Inc., priority 2006, published 2008)

Experiments:
Type in all cases: cell-based
[1] = system: human breast cancer cell line T-47D; assay: Caspase cascade activation (EC50), T-47D; settings: Homo sapiens; T47D cells; caspase cascade activation; read-out: caspase potency (EC50) T47D
Procedure: (§1) Human breast cancer cell lines T-47D, human hepatocellular carcinoma cell line SNU398, human colon carcinoma cell line HCT116, human cancer cell line H1299, human Burkitt's lymphoma cell line Namalwa, human lymphoma cell line Raji, and human B cell lymphoblastoid cell line Ramos were grown according to media component mixtures designated by American Type Culture Collection+10% FCS (Invitrogen Corporation), in a 5% CO2-95% humidity incubator at 37° C. T-47D and H1299 cells were maintained at a cell density between 50 and 80% confluency at a cell density of 0.1 to 0.6×10^6 cells/mL. Cells were harvested at 600×g and resuspended at 0.65×10^6 cells/mL into appropriate media+10% FCS. An aliquot of 22.5 μL of cells was added to a well of a 384-well microtiter plate containing 2.5 μL of a 10% DMSO in RPMI-1640 media solution containing 0.16 to 100 μM of 3-(2-chlorophenyl)-6-(3,4-methylenedioxyphenyl)-7H-[1,2,4]triazolo[3,4-b][1,3,4]thiadiazine or other test compound (0.016 to 10 μM final). An aliquot of 22.5 μL of cells was added to a well of a 384-well microtiter plate containing 2.5 μL of a 10% DMSO in RPMI-1640 media solution without test compound as the control sample. The samples were mixed by agitation and then incubated at 37° C. for 48 h in a 5% CO2-95% humidity incubator. After incubation, the samples were removed from the incubator and 25 μL of a solution containing 14 μM of N—(Ac-DEVD)-N′-ethoxycarbonyl-R110 (SEQ ID No.:1) fluorogenic substrate (Cytovia, Inc.; WO99/18856), 20% sucrose (Sigma), 20 mM DTT (Sigma), 200 mM NaCl (Sigma), 40 mM Na PIPES buffer pH 7.2 (Sigma), and 500 μg/mL lysolecithin (Calbiochem) was added. The samples were mixed by agitation and incubated at room temperature. Using a fluorescent plate reader (Model SPECTRAfluor Plus, Tecan), an initial reading (T=0) was made approximately 1-2 min after addition of the substrate solution, employing excitation at 485 nm and emission at 530 nm, to determine the background fluorescence of the control sample. After the 3 h incubation, the samples were read for fluorescence as above (T=3 h). Calculation: The Relative Fluorescence Unit values (RFU) were used to calculate the sample readings as follows: RFU(T=3H)−Control RFU(T=0)=Net RFU(T=3h) The activity of caspase cascade activation was determined by the ratio of the net RFU value for 3-(2-chlorophenyl)-6-(3,4-methylenedioxyphenyl)-7H-[1,2,4]triazolo[3,4-b][1,3,4]thiadiazine (Example P) or other test compound to that of control samples. The EC50 (nM) was determined by a sigmoidal dose-response calculation (Prism 3.0, GraphPad Software Inc.).

[2] = system: human Burkitt's lymphoma cell line Namalwa; assay: Caspase cascade activation (EC50), Namalwa; settings: Homo sapiens, Burkitts lymphoma cell; Namalwa cells; caspase cascade activation; read-out: caspase potency (EC50) Namalwa
Procedure: as §1

[3] = system: human hepatocellular carcinoma cell line SNU398; assay: Caspase cascade activation (EC50), SNU398; settings: Homo sapiens, SNU-398; SNU398 cells; caspase cascade activation; read-out: caspase potency (EC50) SNU398
Procedure: as §1

[4] = system: human colon carcinoma cell line HCT116; assay: Caspase cascade activation (EC50), HCT116; settings: Homo sapiens, HCT-116; HCT116 cells; caspase cascade activation; read-out: caspase potency (EC50) HCT116
Procedure: as §1

Structure (SMILES) | EC50 [1] | EC50 [2] | EC50 [3] | EC50 [4]
COc1cc(OC)cc(-c2nnc3n2N=C(c2ccc4[nH]c(=O)oc4c2)CS3)c1 [Example 34, 6-(2,3-Dihydro-2-oxobenzo[d]oxazol-6-yl)-3-(3,5-dimethoxyphenyl)-7H-[1,2,4]triazolo[3,4-b][1,3,4]thiadiazine] | 4600 nM | 4930 nM | 4920 nM | 5090 nM
COc1ccc(-c2nnc3n2N=C(c2ccc4[nH]c(=O)oc4c2)CS3)cc1OC [Example 35, 6-(2,3-Dihydro-2-oxobenzo[d]oxazol-6-yl)-3-(3,4-dimethoxyphenyl)-7H-[1,2,4]triazolo[3,4-b][1,3,4]thiadiazine] | > 10000 nM | > 10000 nM | > 10000 nM | > 10000 nM
COc1ccc(-c2nn3c(-c4ccccc4OC)nnc3[nH]c2=O)cc1 [Example 36, 3-(2-Methoxyphenyl)-6-(4-methoxyphenyl)-[1,2,4]triazolo[4,3-b][1,2,4]triazin-7(8H)-one] | > 10000 nM | > 10000 nM | – | > 10000 nM
COc1cc(-c2n[nH]c3nc(=O)c(-c4ccc(C)cc4)nn23)cc(OC)c1OC [Example 37, 3-(3,4,5-Trimethoxyphenyl)-6-(4-methylphenyl)-1H-[1,2,4]triazolo[4,3-b][1,2,4]triazin-7-one] | 5830 nM | > 10000 nM | 5040 nM | > 10000 nM
COc1ccccc1-c1n[nH]c2nc(=O)c(-c3ccc(C)cc3)nn12 [Example 38, 3-(2-Methoxyphenyl)-6-(4-methylphenyl)-1H-[1,2,4]triazolo[4,3-b][1,2,4]triazin-7-one] | > 10000 nM | > 10000 nM | > 10000 nM | > 10000 nM
CCN(CC)S(=O)(=O)c1ccc(C2=Nn3c(nnc3-c3ccccc3C)SC2)cc1 [Example 52, 6-(4-(N,N-Diethylaminosulfonyl)phenyl)-3-(2-methylphenyl)-7H-[1,2,4]triazolo[3,4-b][1,3,4]thiadiazine] | > 10000 nM | > 10000 nM | > 10000 nM | > 10000 nM
COc1cccc(-c2nnc3n2N=C(c2ccc(O)c(O)c2)CS3)c1 [Example D2, 3-(3-Methoxyphenyl)-6-(3,4-dihydroxyphenyl)-7H-[1,2,4]triazolo[3,4-b][1,3,4]thiadiazine] | 687 nM | – | 112 nM | 525 nM
CCOc1ccc(C2=Nn3c(nnc3-c3cccc(Cl)c3)SC2)cc1 [Example E2, 3-(3-Chlorophenyl)-6-(4-ethoxyphenyl)-7H-[1,2,4]triazolo[3,4-b][1,3,4]thiadiazine] | 1100 nM | – | 429 nM | 681 nM
COc1cccc(-c2nnc3n2N=C(c2ccc(Br)cc2)CS3)c1 [Example F2, 3-(3-Methoxyphenyl)-6-(4-bromophenyl)-7H-[1,2,4]triazolo[3,4-b][1,3,4]thiadiazine] | 5400 nM | – | 2700 nM | > 10000 nM
CCOc1ccc(C2=Nn3c(nnc3-c3cccc(OCC)c3)SC2)cc1 [Example G2, 3-(3-Ethoxyphenyl)-6-(4-ethoxyphenyl)-7H-[1,2,4]triazolo[3,4-b][1,3,4]thiadiazine] | 6370 nM | – | 2550 nM | > 10000 nM

More lines, now with the values ahead:

EC50 [1] | EC50 [2] | EC50 [3] | EC50 [4] | Structure (SMILES)
2700 nM | 1280 nM | 943 nM | 2580 nM | COc1ccccc1-c1nnc2n1N=C(c1ccc(C)cc1C)CS2 [Example 39, 3-(2-Methoxyphenyl)-6-(2,4-dimethylphenyl)-7H-[1,2,4]triazolo[3,4-b][1,3,4]thiadiazine]
281 nM | 248 nM | 243 nM | 275 nM | COc1ccccc1-c1nnc2n1N=C(c1ccc(C(C)C)cc1)CS2 [Example 44, 6-(4-Isopropylphenyl)-3-(2-methoxyphenyl)-7H-[1,2,4]triazolo[3,4-b][1,3,4]thiadiazine]
> 10000 nM | > 10000 nM | > 10000 nM | > 10000 nM | COc1ccccc1-c1nnc2n1N=C(c1ccc([N+](=O)[O-])c(OC)c1)CS2 [Example 45, 6-(3-Methoxy-4-nitrophenyl)-3-(2-methoxyphenyl)-7H-[1,2,4]triazolo[3,4-b][1,3,4]thiadiazine]
> 10000 nM | 5590 nM | 5650 nM | > 10000 nM | COc1cc(C)c(Cl)cc1C1=Nn2c(nnc2-c2ccccc2OC)SC1 [Example 49, 6-(5-Chloro-2-methoxy-4-methylphenyl)-3-(2-methoxyphenyl)-7H-[1,2,4]triazolo[3,4-b][1,3,4]thiadiazine]
549 nM | 500 nM | 530 nM | 564 nM | COc1ccccc1-c1nnc2n1N=C(c1ccc(OC(F)(F)F)cc1)CS2 [Example 50, 3-(2-Methoxyphenyl)-6-(4-(trifluoromethoxy)phenyl)-7H-[1,2,4]triazolo[3,4-b][1,3,4]thiadiazine]
> 10000 nM | > 10000 nM | > 10000 nM | > 10000 nM | Cc1ccccc1-c1nnc2n1N=C(c1ccc(C(C)(C)C)cc1)CS2 [Example 51, 6-(4-tert-Butylphenyl)-3-(2-methylphenyl)-7H-[1,2,4]triazolo[3,4-b][1,3,4]thiadiazine]
> 10000 nM | > 10000 nM | > 10000 nM | > 10000 nM | Cc1ccccc1-c1nnc2n1N=C(c1ccc(C)c([N+](=O)[O-])c1)CS2 [Example 53, 6-(4-Methyl-3-nitrophenyl)-3-(2-methylphenyl)-7H-[1,2,4]triazolo[3,4-b][1,3,4]thiadiazine]
554 nM | 290 nM | 306 nM | 441 nM | COc1ccccc1-c1nnc2n1N=C(c1ccc(C)c([N+](=O)[O-])c1)CS2 [Example 54, 3-(2-Methoxyphenyl)-6-(4-methyl-3-nitrophenyl)-7H-[1,2,4]triazolo[3,4-b][1,3,4]thiadiazine]
2040 nM | > 10000 nM | 1870 nM | > 10000 nM | COc1ccccc1-c1nnc2n1N=C(c1ccc(Cl)c([N+](=O)[O-])c1)CS2 [Example 55, 6-(4-Chloro-3-nitrophenyl)-3-(2-methoxyphenyl)-7H-[1,2,4]triazolo[3,4-b][1,3,4]thiadiazine]
476 nM | 270 nM | 328 nM | 506 nM | COc1ccccc1-c1nnc2n1N=C(c1ccc(NC(C)=O)c([N+](=O)[O-])c1)CS2 [Example 56, 6-(4-Acetamido-3-nitrophenyl)-3-(2-methoxyphenyl)-7H-[1,2,4]triazolo[3,4-b][1,3,4]thiadiazine]
2640 nM | 2330 nM | 2280 nM | 2870 nM | COc1cc(C2=Nn3c(nnc3-c3ccccc3OC)SC2)ccc1N [Example 57, 6-(4-Amino-3-methoxyphenyl)-3-(2-methoxyphenyl)-7H-[1,2,4]triazolo[3,4-b][1,3,4]thiadiazine]
> 10000 nM | > 10000 nM | > 10000 nM | > 10000 nM | COc1ccccc1-c1nnc2n1N=C(c1ccc(N)c(N)c1)CS2 [Example 60, 6-(3,4-Diaminophenyl)-3-(2-methoxyphenyl)-7H-[1,2,4]triazolo[3,4-b][1,3,4]thiadiazine]
> 10000 nM | > 10000 nM | > 10000 nM | > 10000 nM | COc1ccccc1C1=Nn2c(nnc2-c2ccccc2OC)SC1 [Example 64, 3-(2-Methoxyphenyl)-6-(2-methoxylphenyl)-7H-[1,2,4]triazolo[3,4-b][1,3,4]thiadiazine]
395 nM | – | 60 nM | 177 nM | COc1ccc(C2=Nn3c(nnc3-c3ccccc3Cl)SC2)cc1 [Example C2, 3-(2-Chlorophenyl)-6-(4-methoxyphenyl)-7H-[1,2,4]triazolo[3,4-b][1,3,4]thiadiazine]
